Laboratory results: ChEMBL document CHEMBL6071181, “Discovery of ZLC491 as a Potent, Selective, and Orally Bioavailable CDK12/13 PROTAC Degrader” (J Med Chem, 2024)
Active and inactive are the calls of the source. The calls are words filed in the database; no cut-off is given here.

Tests used:
[1] = AUC (0 to t) in Sprague-Dawley rat at 10 mg/kg, po measured after 24 hrs by LC/MS/MS analysis; assay type: ADME, organism-based; details: in vivo
[2] = Half-life in Sprague-Dawley rat at 2.5 mg/kg, iv measured after 24 hrs by LC/MS/MS analysis; assay type: ADME, organism-based; details: in vivo
[3] = Cmax in Sprague-Dawley rat at 10 mg/kg, po measured after 24 hrs by LC/MS/MS analysis; assay type: ADME, organism-based; details: in vivo
[4] = Cmax in Sprague-Dawley rat at 2.5 mg/kg, iv measured after 24 hrs by LC/MS/MS analysis; assay type: ADME, organism-based; details: in vivo
[5] = Half-life in Sprague-Dawley rat at 10 mg/kg, po measured after 24 hrs by LC/MS/MS analysis; assay type: ADME, organism-based; details: in vivo
[6] = AUC (0 to t) in Sprague-Dawley rat at 2.5 mg/kg, iv measured after 24 hrs by LC/MS/MS analysis; assay type: ADME, organism-based; details: in vivo
[7] = molecular target: T1, Protein cereblon/Cyclin-dependent kinase 12 (Homo sapiens) (UniProt Q9NYV4+Q96SW2); test: PROTAC activity at CRBN/CDK12 in human MDA-MB-231 cells assessed as induction of CDK12 degradation at 0.3 uM incubated for 15 hrs by immunoblotting analysis relative to control; assay type: cell-based
Target sequence in this assay (Q96SW2 whole entry, looked up, chain 1 of 2): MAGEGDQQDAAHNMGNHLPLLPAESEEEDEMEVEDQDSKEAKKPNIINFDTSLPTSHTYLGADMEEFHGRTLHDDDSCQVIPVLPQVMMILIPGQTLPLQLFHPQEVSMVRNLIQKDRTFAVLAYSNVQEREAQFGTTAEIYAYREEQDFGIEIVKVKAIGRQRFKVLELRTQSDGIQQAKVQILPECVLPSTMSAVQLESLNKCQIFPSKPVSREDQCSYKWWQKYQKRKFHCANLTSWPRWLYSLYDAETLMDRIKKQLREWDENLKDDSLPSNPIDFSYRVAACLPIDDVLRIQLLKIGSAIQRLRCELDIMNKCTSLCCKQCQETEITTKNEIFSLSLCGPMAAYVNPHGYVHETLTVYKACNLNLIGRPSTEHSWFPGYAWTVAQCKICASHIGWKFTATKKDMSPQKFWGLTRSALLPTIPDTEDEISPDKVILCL
Target sequence in this assay (Q9NYV4 whole entry, looked up, chain 2 of 2): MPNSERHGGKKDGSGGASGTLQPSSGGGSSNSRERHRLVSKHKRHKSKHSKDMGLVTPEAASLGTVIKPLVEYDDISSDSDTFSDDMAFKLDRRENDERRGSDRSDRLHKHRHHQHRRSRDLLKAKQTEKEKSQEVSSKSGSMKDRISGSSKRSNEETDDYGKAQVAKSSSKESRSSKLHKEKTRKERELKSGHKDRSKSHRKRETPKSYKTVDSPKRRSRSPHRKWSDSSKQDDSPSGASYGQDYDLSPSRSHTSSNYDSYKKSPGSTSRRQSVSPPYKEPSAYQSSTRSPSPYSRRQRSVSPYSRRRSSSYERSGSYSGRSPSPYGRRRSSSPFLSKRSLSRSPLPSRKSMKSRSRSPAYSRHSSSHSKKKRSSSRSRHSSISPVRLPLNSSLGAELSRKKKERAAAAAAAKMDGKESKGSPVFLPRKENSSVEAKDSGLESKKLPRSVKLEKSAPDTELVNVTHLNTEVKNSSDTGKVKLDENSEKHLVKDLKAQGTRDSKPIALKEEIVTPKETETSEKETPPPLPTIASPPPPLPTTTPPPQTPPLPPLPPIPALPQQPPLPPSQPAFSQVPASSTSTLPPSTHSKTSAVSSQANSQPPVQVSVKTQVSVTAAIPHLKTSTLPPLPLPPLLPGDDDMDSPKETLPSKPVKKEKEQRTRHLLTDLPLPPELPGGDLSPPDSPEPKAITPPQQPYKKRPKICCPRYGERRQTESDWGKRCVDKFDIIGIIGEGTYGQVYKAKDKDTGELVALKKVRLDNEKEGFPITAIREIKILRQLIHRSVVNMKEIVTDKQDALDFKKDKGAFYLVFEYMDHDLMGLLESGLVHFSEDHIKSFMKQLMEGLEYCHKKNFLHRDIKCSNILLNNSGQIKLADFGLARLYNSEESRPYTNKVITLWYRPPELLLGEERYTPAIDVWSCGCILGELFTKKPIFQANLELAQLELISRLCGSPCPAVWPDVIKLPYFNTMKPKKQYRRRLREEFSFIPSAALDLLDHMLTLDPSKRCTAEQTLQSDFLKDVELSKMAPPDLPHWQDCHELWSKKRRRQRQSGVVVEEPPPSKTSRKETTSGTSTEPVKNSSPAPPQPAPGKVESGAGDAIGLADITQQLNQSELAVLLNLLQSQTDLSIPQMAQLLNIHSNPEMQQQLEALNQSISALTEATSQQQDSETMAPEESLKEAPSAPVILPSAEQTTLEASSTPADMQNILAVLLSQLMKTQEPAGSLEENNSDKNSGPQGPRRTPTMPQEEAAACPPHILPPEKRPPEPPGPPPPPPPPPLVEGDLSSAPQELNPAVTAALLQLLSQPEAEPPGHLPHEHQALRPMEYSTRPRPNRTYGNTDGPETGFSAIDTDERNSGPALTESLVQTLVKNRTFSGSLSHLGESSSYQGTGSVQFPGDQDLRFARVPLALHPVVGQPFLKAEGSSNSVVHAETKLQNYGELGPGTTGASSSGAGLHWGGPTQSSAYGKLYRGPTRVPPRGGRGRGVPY

[8] = molecular target: T2, Protein cereblon/Cyclin-dependent kinase 13 (Homo sapiens) (UniProt Q14004+Q96SW2); test: PROTAC activity at CRBN/CDK13 in human MDA-MB-231 cells assessed as induction of CDK13 degradation at 0.3 uM incubated for 15 hrs by immunoblotting analysis relative to control; assay type: cell-based
Target sequence in this assay (Q96SW2 whole entry, looked up, chain 1 of 2): as the sequence (Q96SW2 whole entry, looked up, chain 1 of 2) above
Target sequence in this assay (Q14004 whole entry, looked up, chain 2 of 2): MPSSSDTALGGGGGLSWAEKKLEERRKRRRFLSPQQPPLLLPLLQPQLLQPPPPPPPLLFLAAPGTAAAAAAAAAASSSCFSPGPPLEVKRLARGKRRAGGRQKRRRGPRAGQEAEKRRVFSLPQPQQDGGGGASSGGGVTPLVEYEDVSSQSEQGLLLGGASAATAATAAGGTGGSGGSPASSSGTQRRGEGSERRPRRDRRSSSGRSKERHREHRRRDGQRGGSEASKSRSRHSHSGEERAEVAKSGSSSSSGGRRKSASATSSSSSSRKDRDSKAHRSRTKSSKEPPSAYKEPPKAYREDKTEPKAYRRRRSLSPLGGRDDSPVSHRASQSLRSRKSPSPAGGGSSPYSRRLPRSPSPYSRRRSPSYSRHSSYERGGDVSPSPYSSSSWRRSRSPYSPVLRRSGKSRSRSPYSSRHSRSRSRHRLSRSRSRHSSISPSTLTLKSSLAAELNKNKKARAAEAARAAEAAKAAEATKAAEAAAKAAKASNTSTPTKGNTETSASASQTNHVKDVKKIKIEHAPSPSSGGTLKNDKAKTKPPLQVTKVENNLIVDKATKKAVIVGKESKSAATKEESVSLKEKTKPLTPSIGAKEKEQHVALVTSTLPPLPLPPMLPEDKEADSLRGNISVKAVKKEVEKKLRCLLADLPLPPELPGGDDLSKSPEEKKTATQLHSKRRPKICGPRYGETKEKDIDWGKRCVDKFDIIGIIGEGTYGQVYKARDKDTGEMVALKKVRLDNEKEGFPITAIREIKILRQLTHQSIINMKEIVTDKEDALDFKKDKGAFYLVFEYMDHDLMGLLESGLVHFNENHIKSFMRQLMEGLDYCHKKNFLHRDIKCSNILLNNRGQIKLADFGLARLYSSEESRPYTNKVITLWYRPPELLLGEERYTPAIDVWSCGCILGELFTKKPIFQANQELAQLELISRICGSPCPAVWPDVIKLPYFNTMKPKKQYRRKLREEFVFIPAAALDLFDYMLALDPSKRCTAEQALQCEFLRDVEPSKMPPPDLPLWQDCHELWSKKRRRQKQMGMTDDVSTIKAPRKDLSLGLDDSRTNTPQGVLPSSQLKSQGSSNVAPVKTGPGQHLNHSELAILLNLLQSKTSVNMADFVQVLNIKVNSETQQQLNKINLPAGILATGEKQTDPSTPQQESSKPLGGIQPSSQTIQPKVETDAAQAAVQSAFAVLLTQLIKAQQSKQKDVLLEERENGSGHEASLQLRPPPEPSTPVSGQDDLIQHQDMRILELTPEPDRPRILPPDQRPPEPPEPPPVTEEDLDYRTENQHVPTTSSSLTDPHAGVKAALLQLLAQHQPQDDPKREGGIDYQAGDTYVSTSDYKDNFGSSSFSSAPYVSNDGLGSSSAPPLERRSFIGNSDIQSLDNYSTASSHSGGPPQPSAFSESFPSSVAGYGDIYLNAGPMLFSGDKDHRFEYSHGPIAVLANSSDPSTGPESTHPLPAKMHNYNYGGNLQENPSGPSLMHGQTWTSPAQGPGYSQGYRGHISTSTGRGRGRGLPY

MRC5 = test: Antiproliferative activity against human MRC5 cells assessed as inhibition of cell growth at 0.0001 to 100 uM incubated for 5 days by CCK8 assay; assay type: toxicity, cell-based; details: mrc5, 120 h, dose 0.0001-100 µM, time 5 day
HCC38 = test: Antiproliferative activity against human HCC38 cells assessed as inhibition of cell growth at 0.0001 to 100 uM incubated for 5 days by CCK8 assay; assay type: functional, cell-based; details: dose 0.0001-100 µM, time 5.0 day
MCF-10A = test: Antiproliferative activity against human MCF-10A cells assessed as inhibition of cell growth at 0.0001 to 100 uM incubated for 5 days by CCK8 assay; assay type: toxicity, cell-based; details: 120 h, dose 0.0001-100 µM, time 5 day
[9] = molecular target: T1, Protein cereblon/Cyclin-dependent kinase 12 (Homo sapiens); test: PROTAC activity at CRBN/CDK12 in human MDA-MB-231 cells assessed as induction of CDK12 degradation at 1 uM incubated for 10 hrs by immunoblotting analysis; assay type: cell-based
Target sequence in this assay (Q96SW2 whole entry, looked up): as the sequence (Q96SW2 whole entry, looked up, chain 1 of 2) above
Target sequence in this assay (Q9NYV4 whole entry, looked up): as the sequence (Q9NYV4 whole entry, looked up, chain 2 of 2) above

MDA-MB-436 = test: Antiproliferative activity against human MDA-MB-436 cells assessed as inhibition of cell growth at 0.0001 to 100 uM incubated for 5 days by CCK8 assay; assay type: functional, cell-based; details: dose 0.0001-100 µM, time 5.0 day
HEK293 = test: Antiproliferative activity against HEK293 cells assessed as inhibition of cell growth at 0.0001 to 100 uM incubated for 5 days by CCK8 assay; assay type: toxicity, cell-based; details: human, hek293, 120 h, dose 0.0001-100 µM, time 5 day
[10] = molecular target: T2, Protein cereblon/Cyclin-dependent kinase 13 (Homo sapiens); test: PROTAC activity at CRBN/CDK13 in human MDA-MB-231 cells assessed as induction of CDK13 degradation at 1 uM incubated for 10 hrs by immunoblotting analysis; assay type: cell-based
Target sequence in this assay (Q14004 whole entry, looked up): as the sequence (Q14004 whole entry, looked up, chain 2 of 2) above
Target sequence in this assay (Q96SW2 whole entry, looked up): as the sequence (Q96SW2 whole entry, looked up, chain 1 of 2) above

MDA-MB-231 = test: Antiproliferative activity against human MDA-MB-231 cells assessed as inhibition of cell growth at 0.0001 to 100 uM incubated for 5 days by CCK8 assay; assay type: functional, cell-based; details: dose 0.0001-100 µM, time 5.0 day

For N#Cc1ccc(N[C@H]2CC[C@H](N(C(=O)NCc3ccccc3)c3ccc(N4CCN(C5CCN(c6ccc7c(c6)C(=O)N(C6CCC(=O)NC6=O)C7=O)CC5)CC4)cc3)CC2)nc1 (stereo partly specified), the AUC(0-t) at 24 h [1] was 3110 ng·h/mL, the half-life [2] was 2.38 h and the Cmax [3] was 308 ng/mL. The Cmax [4] was 2590 ng/mL, the half-life [5] was 3.04 h and the AUC(0-t) at 24 h [6] was 4720 ng·h/mL.
In the case of “3-benzyl-1-((1r,4r)-4-((5-cyanopyridin-2-yl)amino)cyclohexyl)-1-(4-(4-(1-(2-(2,6-dioxopiperidin-3-yl)-1,3-dioxoisoindolin-5-yl)azetidine-3-carbonyl)piperazin-1-yl)phenyl)urea”, the Activity [7] is reported as 35% and the Activity [8] is reported as 38%.
In the case of CN1C(=O)CCC(N2C(=O)c3cc(F)c(N4CCC(N5CCN(c6ccc(N(C(=O)NCc7ccccc7)[C@H]7CC[C@H](Nc8ccc(C#N)cn8)CC7)cc6)CC5)CC4)cc3C2=O)C1=O (stereo partly specified), the Activity (MRC5) is reported as “Non-Toxic”, the Activity (HCC38) is reported as “inactive” and the Activity (MCF-10A) is reported as “Non-Toxic”. The Activity [9] was “inactive”, the Activity (MDA-MB-436) was “inactive” and the Activity (HEK293) was “Non-Toxic”. For the same molecule, the Activity [10] was “inactive” and the Activity (MDA-MB-231) was “inactive”.
